Test results: paper PMC8048783, “CYP154C5 Regioselectivity in Steroid Hydroxylation Explored by Substrate Modifications and Protein Engineering” (Chembiochem, 2020)

Key:
CYP154C5 [1] = biological target: T1, CYP154C5 (Nocardia farcinica, UniProt Q5YNS8); assay: biochemical; assay type: binding
T1 construct: gene NFA_53110; full-length, N-terminal His-tag (pET28a(+), NdeI/HindIII), purified from E. coli C43(DE3)

CYP154C5 [2] = biological target: T2, CYP154C5 (Nocardia farcinica, UniProt Q5YNS8, F92A); assay: type I spectral shift titration, tight-binding fit
T2 construct: gene NFA_53110; full-length, N-terminal His-tag (pET28a(+), NdeI/HindIII), purified from E. coli C43(DE3)
T2 sequence (Q5YNS8 whole entry F92A): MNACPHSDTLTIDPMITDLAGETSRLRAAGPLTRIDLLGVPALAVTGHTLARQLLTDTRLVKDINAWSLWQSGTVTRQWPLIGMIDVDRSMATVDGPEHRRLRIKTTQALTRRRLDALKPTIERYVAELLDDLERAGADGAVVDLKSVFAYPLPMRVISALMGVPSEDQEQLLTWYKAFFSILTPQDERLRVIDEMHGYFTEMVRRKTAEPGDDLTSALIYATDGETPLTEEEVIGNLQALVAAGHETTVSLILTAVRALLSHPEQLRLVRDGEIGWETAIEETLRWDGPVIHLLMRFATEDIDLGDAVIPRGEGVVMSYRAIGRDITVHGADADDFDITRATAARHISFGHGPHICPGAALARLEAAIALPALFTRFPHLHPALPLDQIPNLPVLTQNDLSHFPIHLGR
Description: (§1) type I spectral shift titration, tight-binding fit on CYP154C5

CYP154C5 [3] = biological target: T3, CYP154C5 (Nocardia farcinica, UniProt Q5YNS8, Q398A); assay: type I spectral shift titration, tight-binding fit
T3 construct: gene NFA_53110; full-length, N-terminal His-tag (pET28a(+), NdeI/HindIII), purified from E. coli C43(DE3)
T3 sequence (Q5YNS8 whole entry Q398A): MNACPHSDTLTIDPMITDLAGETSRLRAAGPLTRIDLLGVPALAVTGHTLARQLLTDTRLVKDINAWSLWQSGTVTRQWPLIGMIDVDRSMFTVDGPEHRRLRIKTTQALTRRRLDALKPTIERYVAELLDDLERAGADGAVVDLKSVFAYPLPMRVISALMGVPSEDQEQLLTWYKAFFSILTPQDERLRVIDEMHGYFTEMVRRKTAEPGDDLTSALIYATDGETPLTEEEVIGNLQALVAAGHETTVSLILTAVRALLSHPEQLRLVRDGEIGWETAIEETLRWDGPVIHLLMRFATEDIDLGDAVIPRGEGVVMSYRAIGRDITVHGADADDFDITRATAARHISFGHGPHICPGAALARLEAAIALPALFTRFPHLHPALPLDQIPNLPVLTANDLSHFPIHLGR
Description: as §1

CYP154C5 [4] = biological target: T4, CYP154C5 (Nocardia farcinica, UniProt Q5YNS8, M84A); assay: type I spectral shift titration, tight-binding fit
T4 construct: gene NFA_53110; full-length, N-terminal His-tag (pET28a(+), NdeI/HindIII), purified from E. coli C43(DE3)
T4 sequence (Q5YNS8 whole entry M84A): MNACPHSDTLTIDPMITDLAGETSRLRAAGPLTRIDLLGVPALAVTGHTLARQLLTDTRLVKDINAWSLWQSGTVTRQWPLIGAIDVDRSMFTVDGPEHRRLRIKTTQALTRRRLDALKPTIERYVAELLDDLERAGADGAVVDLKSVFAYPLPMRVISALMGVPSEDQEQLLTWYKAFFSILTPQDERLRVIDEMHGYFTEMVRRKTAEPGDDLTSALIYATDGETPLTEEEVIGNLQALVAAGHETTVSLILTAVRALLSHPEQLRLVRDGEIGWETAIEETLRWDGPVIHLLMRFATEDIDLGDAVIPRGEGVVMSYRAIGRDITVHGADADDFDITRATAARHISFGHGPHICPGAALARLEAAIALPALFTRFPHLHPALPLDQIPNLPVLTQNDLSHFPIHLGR
Description: as §1

CYP154C5 [5] = biological target: T5, CYP154C5 (Nocardia farcinica, UniProt Q5YNS8, Q239A); assay: type I spectral shift titration, tight-binding fit
T5 construct: gene NFA_53110; full-length, N-terminal His-tag (pET28a(+), NdeI/HindIII), purified from E. coli C43(DE3)
T5 sequence (Q5YNS8 whole entry Q239A): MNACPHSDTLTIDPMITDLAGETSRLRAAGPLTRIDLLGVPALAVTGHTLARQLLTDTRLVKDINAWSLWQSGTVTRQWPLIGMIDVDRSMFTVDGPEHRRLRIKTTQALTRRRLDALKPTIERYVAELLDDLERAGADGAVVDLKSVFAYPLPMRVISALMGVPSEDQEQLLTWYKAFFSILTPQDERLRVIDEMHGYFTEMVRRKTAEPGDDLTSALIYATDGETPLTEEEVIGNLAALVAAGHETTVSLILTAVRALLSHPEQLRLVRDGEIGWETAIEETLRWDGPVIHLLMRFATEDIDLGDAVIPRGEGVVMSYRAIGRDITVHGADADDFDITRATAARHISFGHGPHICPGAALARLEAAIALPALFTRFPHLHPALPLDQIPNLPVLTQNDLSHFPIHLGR
Description: as §1

T1 sequence (Q5YNS8 entry or part of it): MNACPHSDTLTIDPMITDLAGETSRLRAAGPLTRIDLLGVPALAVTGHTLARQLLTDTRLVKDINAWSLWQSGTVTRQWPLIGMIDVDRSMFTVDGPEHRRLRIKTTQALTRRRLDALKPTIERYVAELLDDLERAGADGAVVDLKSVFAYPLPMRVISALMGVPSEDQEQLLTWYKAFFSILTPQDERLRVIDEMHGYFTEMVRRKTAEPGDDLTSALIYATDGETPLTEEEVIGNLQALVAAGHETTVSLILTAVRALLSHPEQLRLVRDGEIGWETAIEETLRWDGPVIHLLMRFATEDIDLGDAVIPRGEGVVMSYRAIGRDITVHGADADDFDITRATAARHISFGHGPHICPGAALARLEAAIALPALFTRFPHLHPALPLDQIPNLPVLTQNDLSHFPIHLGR

Question: For `CC(=O)[C@H]1CC[C@H]2[C@@H]3CC=C4C[C@@H](O)CC[C@]4(C)[C@H]3CC[C@]12C` [compound 1, pregnenolone], which Kd (CYP154C5 [1]) is on record?
Answer: 62 ± 14 nM

Question: `C[C@]12CC[C@H](O)CC1=CC[C@@H]1[C@@H]2CC[C@]2(C)C(=O)CC[C@@H]12` [compound 2, dehydroepiandrosterone] was tested. Which Kd (CYP154C5 [1]) did it give?
Answer: < 1 nM

Question: What about the Kd (CYP154C5 [2]) of the same compound?
Answer: 1020 ± 32 nM

Question: What about the Kd (CYP154C5 [3]) of the same compound?
Answer: 687 ± 43 nM

Question: With `CC(=O)[C@H]1CC[C@H]2[C@@H]3CCC4=CC(=O)CC[C@]4(C)[C@H]3CC[C@]12C` [compound 3, progesterone] as the compound, how does the Kd (CYP154C5 [1]) read?
Answer: 15 ± 10 nM

Question: And the Kd (CYP154C5 [2])?
Answer: 209 ± 12 nM

Question: And the Kd (CYP154C5 [3])?
Answer: 34 ± 21 nM

Question: Which results are given for `C[C@]12CCC(=O)C=C1CC[C@@H]1[C@@H]2CC[C@]2(C)C(=O)CC[C@@H]12` [compound 4, androstenedione]?
Answer: Kd (CYP154C5 [1]): 12 ± 7 nM; Kd (CYP154C5 [2]): 512 ± 17 nM; Kd (CYP154C5 [4]): 3130 ± 234 nM

Question: Which results are given for `C[C@]12CC[C@H]3[C@@H](CCC4=CC(=O)CC[C@@]43C)[C@@H]1CC[C@@H]2O` [compound 5, testosterone]?
Answer: Kd (CYP154C5 [1]): 18 ± 10 nM; Kd (CYP154C5 [2]): 1480 ± 33 nM; Kd (CYP154C5 [3]): 747 ± 45 nM; Kd (CYP154C5 [4]): 5710 ± 161 nM

Question: How did the Kd (CYP154C5 [1]) turn out when `C[C@]12CC[C@H]3[C@@H](CCC4=CC(=O)CC[C@@H]43)[C@@H]1CC[C@@H]2O` [compound 6, nandrolone] was run?
Answer: 100 ± 17 nM

Question: And the Kd (CYP154C5 [5])?
Answer: 13 ± 6 nM

Question: `C[C@]12CCCCC1=CC[C@@H]1[C@@H]2CC[C@]2(C)C(=O)CC[C@@H]12` [compound 10, 3‐deoxydehydroepiandrosterone] was tested. Which Kd (CYP154C5 [1]) did it give?
Answer: 94 ± 52 nM

Question: Which Kd (CYP154C5 [1]) does the source give for `C[C@@]12CCC[C@H]1[C@@H]1CC[C@H]3CC(=O)CC[C@]3(C)[C@H]1CC2` [compound 11, 5α‐androstan‐3‐one] here?
Answer: 20 ± 16 nM
